Experimental data taken from ChEMBL document CHEMBL4665665, “4-Aryl Pyrrolidines as Novel Orally Efficacious Antimalarial Agents. Part 2: 2-Aryl-N-(4-arylpyrrolidin-3-yl)acetamides” (ACS Med Chem Lett, 2019).

Columns and labels:
[1] = test system: Plasmodium falciparum; assay: Antimalarial activity against CQ-sensitive Plasmodium falciparum 3D7 incubated for 72 hrs by SYBR Green-1 dye based fluorescence assay; type: functional, organism-based
[2] = test system: Plasmodium chabaudi; assay: Antimalarial activity against Plasmodium chabaudi ASS infected in NIH mouse assessed as inhibition of parasitemia at 30 mg/kg, po qd for 4 days starting from 4 hrs post-parasite inoculation and measured at 24 hrs after last-drug treatment by Peter's 4-day suppressive test relative to control; type: functional; conditions: 96 h
[3] = Plasmodium falciparum, 3D7, 72 h

SMILES	IC50 [1, 3]	further results
Cc1ccc(CC(=O)N[C@H]2CNC[C@@H]2c2ccc(C(F)(F)F)cc2)cn1 (racemic)	3700 nM	
Cc1ccc(CC(=O)N[C@H]2CNC[C@@H]2c2ccc(C(F)(F)F)cc2)cc1 (racemic)	230 nM	
COc1ccc(CC(=O)N[C@H]2CNC[C@@H]2c2ccc(C(F)(F)F)cc2)nc1 (racemic)	3600 nM	
CN(C)c1cccc(CC(=O)N[C@H]2CNC[C@@H]2c2ccc(C(F)(F)F)cc2)c1 (racemic)	230 nM	
CN(C)c1ccc(CC(=O)N[C@H]2CNC[C@@H]2c2ccc(C(F)(F)F)cc2)cc1		IC50 [1]: 860 nM
O=C(Cc1ccccc1)N[C@H]1CNC[C@@H]1c1ccc(C(F)(F)F)cc1 (racemic)	2000 nM	
CN(C)c1ccc(CC(=O)N[C@@H]2CNC[C@H]2c2ccc(C(C)(C)C)cc2)cc1	120 nM	
CN(C)c1ccc(CNC(=O)[C@H]2CNC[C@@H]2c2ccc(C(F)(F)F)cc2)cc1 (racemic)	190 nM	
Cc1cccc(CC(=O)N[C@H]2CNC[C@@H]2c2ccc(C(F)(F)F)cc2)c1 (racemic)	370 nM	
CN1C[C@@H](N(C)C(=O)Cc2ccc(N(C)C)cc2)[C@H](c2ccc(C(F)(F)F)nc2)C1 (racemic)	1400 nM	
CN(C)c1ccc(CC(=O)N[C@H]2CNC[C@@H]2c2ccc(C(C)(F)F)cc2)cc1	440 nM	
CN(C)c1ccc(CC(=O)N[C@@H]2CNC[C@H]2c2ccc(C(F)(F)C(F)(F)F)cc2)cc1	140 nM	
CN(C)c1ccc(CCC(=O)N[C@H]2CNC[C@@H]2c2ccc(C(F)(F)F)cc2)cc1 (racemic)	1400 nM	
CN(C)c1ccc(CC(=O)N[C@@H]2CNC[C@H]2c2ccc(C(C)(F)F)nc2)cc1	60 nM	
CN(C)c1ccc(CC(=O)N[C@H]2CNC[C@@H]2c2ccc(C(F)(F)F)cc2)cc1 (racemic)		IC50 [1]: 96 nM
CN(C)c1ccc(CC(=O)N[C@@H]2CNC[C@H]2c2cc3cc(F)ccc3o2)cc1	270 nM	
C[C@H](NC(=O)[C@H]1CNC[C@@H]1c1ccc(C(F)(F)F)cc1)c1ccc(N(C)C)cc1		inhibition in vivo at 30 mg/kg/day [2]: 92.2%
CN(C)c1ccc(CC(=O)N[C@H]2CNC[C@@H]2c2ccc(S(F)(F)(F)(F)F)cc2)cc1	1200 nM	
CN(C)c1ccc(CNC(=O)[C@H]2CNC[C@@H]2c2ccc(C(F)(F)F)nc2)cc1 (racemic)	250 nM	
CN(C)c1ccc(CC(=O)N(C)[C@@H]2CNC[C@H]2c2ccc(C(F)(F)F)cc2)cc1	200 nM	
